{"source": "patent EP0320984A2", "about": "“1,4-Dihydropyridine derivatives” (FUJIREBIO INC., priority 1987, dated 1989)", "tested_on": "Rabbit platelet rich plasma (PRP)", "assay": "Inhibitory activity on platelet aggregation in rabbit platelet rich plasma (light transmission)", "assay_type": "cell-based", "details": "added to PRP 30 minutes before agent; for Inhibitory activity on platelet aggregation, PAF: compound 3x10^-6 (unit not given), Platelet activating factor (PAF) 10 mg/ml; for Inhibitory activity on platelet aggregation, ADP / Inhibitory activity on platelet aggregation, AA / Inhibitory activity on platelet aggregation, Collagen: compound 10^-4 (unit not given); for Inhibitory activity on platelet aggregation, ADP: Adenosine diphosphate (ADP) 5 mM; for Inhibitory activity on platelet aggregation, AA: Arachidonic acid (AA) 1 mM; for Inhibitory activity on platelet aggregation, Collagen: aggregating agent collagen", "procedure": "3. Experiment for inhibitory activity on platelet aggregation in rabbit:\nRabbit platelet rich plasma (PRP) was prepared by centrifugation of the citrated blood at 380 g for 10 minutes at 20°C. Test solution (10 µl) was added to PRP (200 µl) 30 minutes before treatment of aggregation agents (10 µl). The extent of aggregation was expressed with the maximum change in light transmission for PRP and platelet poor plasma was taken as a value of 100%", "data": [{"smiles": "COC(=O)C1=C(C)NC(C)=C(C(=O)OC/C=C/c2ccc(Cn3ccnc3)cc2)C1c1cccc([N+](=O)[O-])c1", "note": "(centres unmarked) [Example 1, (E)-3-{4-(1-imidazolylmethyl)phenyl}-2-propen-1-yl methyl 1,4-dihydro-2,6-dimethyl-4-(3-nitrophenyl)pyridine-3,5-dicarboxylate]", "values": [{"measurement": "Inhibitory activity on platelet aggregation, PAF", "value": 35.4, "unit": "%"}, {"measurement": "Inhibitory activity on platelet aggregation, ADP", "value": 7.3, "unit": "%"}, {"measurement": "Inhibitory activity on platelet aggregation, AA", "value": 26.2, "unit": "%"}, {"measurement": "Inhibitory activity on platelet aggregation, Collagen", "value": 19.5, "unit": "%"}]}, {"smiles": "COC(=O)C1=C(C)NC(C)=C(C(=O)OC/C=C/c2ccc(Cc3cccnc3)cc2)C1c1cccc([N+](=O)[O-])c1", "note": "(centres unmarked) [Example 2, Methyl (E)-3-{4-(3-pyridylmethyl)phenyl}-2-propen-1-yl 1,4-dihydro-2,6-dimethyl-4-(3-nitrophenyl)pyridine-3,5-dicarboxylate]", "values": [{"measurement": "Inhibitory activity on platelet aggregation, PAF", "value": 0, "unit": "%"}, {"measurement": "Inhibitory activity on platelet aggregation, ADP", "value": 5.5, "unit": "%"}, {"measurement": "Inhibitory activity on platelet aggregation, AA", "value": 12.6, "unit": "%"}, {"measurement": "Inhibitory activity on platelet aggregation, Collagen", "value": 23.5, "unit": "%"}]}, {"smiles": "COC(=O)C1=C(C)NC(C)=C(C(=O)OC/C=C/c2ccc(-n3ccnc3)cc2)C1c1cccc([N+](=O)[O-])c1", "note": "(centres unmarked) [Example 3, (E)-3-{4-(1-imidazolyl)phenyl}-2-propen-1-yl methyl 1,4-dihydro-2,6-dimethyl-4-(3-nitrophenyl)pylidine-3,5-dicarboxylate]", "values": [{"measurement": "Inhibitory activity on platelet aggregation, PAF", "value": 0, "unit": "%"}, {"measurement": "Inhibitory activity on platelet aggregation, ADP", "value": 2.2, "unit": "%"}, {"measurement": "Inhibitory activity on platelet aggregation, AA", "value": 19.3, "unit": "%"}, {"measurement": "Inhibitory activity on platelet aggregation, Collagen", "value": 33.2, "unit": "%"}]}, {"smiles": "COC(=O)C1=C(C)NC(C)=C(C(=O)OC/C=C/c2ccc(Cn3ccnc3)o2)C1c1cccc([N+](=O)[O-])c1", "note": "(centres unmarked) [Example 4, (E)-3-{5-(1-imidazolylmethyl)-2-furan}-2-propen-1-yl methyl 1,4-dihydro-2,6-dimethyl-4-(3-nitrophenyl)pyridine-3,5-dicarboxylate]", "values": [{"measurement": "Inhibitory activity on platelet aggregation, PAF", "value": 95.6, "unit": "%"}, {"measurement": "Inhibitory activity on platelet aggregation, AA", "value": 30.8, "unit": "%"}, {"measurement": "Inhibitory activity on platelet aggregation, Collagen", "value": 30.5, "unit": "%"}]}, {"smiles": "COC(=O)C1=C(C)NC(C)=C(C(=O)OC/C=C/c2ccc(Cn3ccnc3)s2)C1c1cccc([N+](=O)[O-])c1", "note": "(centres unmarked) [Example 5, (E)-3-{5-(1-imidazolylmethyl)-2-thiophene}-2-propen-1-yl methyl 1,4-dihydro-2,6-dimethyl-4-(3-nitrophenyl) pyridine-3,5-dicarboxylate]", "values": [{"measurement": "Inhibitory activity on platelet aggregation, PAF", "value": 100, "unit": "%"}, {"measurement": "Inhibitory activity on platelet aggregation, ADP", "value": 12.0, "unit": "%"}, {"measurement": "Inhibitory activity on platelet aggregation, AA", "value": 33.4, "unit": "%"}, {"measurement": "Inhibitory activity on platelet aggregation, Collagen", "value": 32.3, "unit": "%"}]}, {"smiles": "COC(=O)C1=C(C)NC(C)=C(C(=O)OC/C=C(\\C)c2ccc(Cn3ccnc3)cc2)C1c1cccc([N+](=O)[O-])c1", "note": "(centres unmarked) [Example 6]", "values": [{"measurement": "Inhibitory activity on platelet aggregation, PAF", "value": 0, "unit": "%"}, {"measurement": "Inhibitory activity on platelet aggregation, ADP", "value": 6.5, "unit": "%"}, {"measurement": "Inhibitory activity on platelet aggregation, AA", "value": 15.6, "unit": "%"}, {"measurement": "Inhibitory activity on platelet aggregation, Collagen", "value": 27.2, "unit": "%"}]}, {"smiles": "CCOC(=O)C1=C(C)NC(C)=C(C(=O)OC/C=C/c2ccc(Cn3ccnc3)cc2)C1c1cccc([N+](=O)[O-])c1", "note": "(centres unmarked) [Example 7, Ethyl (E)-3-{4-(1-imidazolylmethyl)phenyl}-2-propen-1-yl 1,4-dihydro-2,6-dimethyl-4-(3-nitrophenyl)pyridine-3,5-dicarboxylate]", "values": [{"measurement": "Inhibitory activity on platelet aggregation, PAF", "value": 0, "unit": "%"}, {"measurement": "Inhibitory activity on platelet aggregation, ADP", "value": 4.3, "unit": "%"}, {"measurement": "Inhibitory activity on platelet aggregation, AA", "value": 17.8, "unit": "%"}, {"measurement": "Inhibitory activity on platelet aggregation, Collagen", "value": 30.9, "unit": "%"}]}, {"smiles": "COC(=O)C1=C(C)NC(C)=C(C(=O)OC/C(C)=C/c2ccc(Cn3ccnc3)cc2)C1c1cccc([N+](=O)[O-])c1", "note": "(centres unmarked) [Example 8, (E)-3-{4-(1-imidazolylmethyl)phenyl}-2-methyl-2-propen-1-yl methyl 1,4-dihydro-2,6-dimethyl-4-(3-nitro-phenyl)pyridine-3,5-dicarboxylate]", "values": [{"measurement": "Inhibitory activity on platelet aggregation, PAF", "value": 28.9, "unit": "%"}, {"measurement": "Inhibitory activity on platelet aggregation, ADP", "value": 10.8, "unit": "%"}, {"measurement": "Inhibitory activity on platelet aggregation, AA", "value": 18.8, "unit": "%"}, {"measurement": "Inhibitory activity on platelet aggregation, Collagen", "value": 18.9, "unit": "%"}]}, {"smiles": "COC(=O)C1=C(C)NC(C)=C(C(=O)OC/C=C/c2ccc(Cn3cnnc3)cc2)C1c1cccc([N+](=O)[O-])c1", "note": "(centres unmarked) [Example 9]", "values": [{"measurement": "Inhibitory activity on platelet aggregation, PAF", "value": 78.8, "unit": "%"}, {"measurement": "Inhibitory activity on platelet aggregation, ADP", "value": 6.5, "unit": "%"}, {"measurement": "Inhibitory activity on platelet aggregation, AA", "value": 5.9, "unit": "%"}, {"measurement": "Inhibitory activity on platelet aggregation, Collagen", "value": 11.1, "unit": "%"}]}, {"smiles": "COC(=O)C1=C(C)NC(C)=C(C(=O)OC/C=C/c2ccc(Cn3cncn3)cc2)C1c1cccc([N+](=O)[O-])c1", "note": "(centres unmarked) [Example 10, Methyl (E)-3-{4-(1,2,4-triazol-1-ylmethyl)phenyl}-2propen-1-yl 1,4-dihydro-2,6-dimethyl-4-(3-nitrophenyl)pyridine-3,5-dicarboxylate]", "values": [{"measurement": "Inhibitory activity on platelet aggregation, PAF", "value": 24.4, "unit": "%"}, {"measurement": "Inhibitory activity on platelet aggregation, ADP", "value": 2.1, "unit": "%"}, {"measurement": "Inhibitory activity on platelet aggregation, AA", "value": 5.0, "unit": "%"}, {"measurement": "Inhibitory activity on platelet aggregation, Collagen", "value": 5.5, "unit": "%"}]}, {"smiles": "COC(=O)C1=C(C)NC(C)=C(C(=O)OC/C=C/c2ccc(Cn3cnnn3)cc2)C1c1cccc([N+](=O)[O-])c1", "note": "(centres unmarked) [Example 11, Methyl (E)-3-{4-(1,2,3,4-tetrazol-1-ylmethyl)phenyl}-2-propen-1-yl 1,4-dihydro-2,6-dimethyl-4-(3-nitrophenyl)pyridine-3,5-dicarboxylate]", "values": [{"measurement": "Inhibitory activity on platelet aggregation, PAF", "value": 31.1, "unit": "%"}, {"measurement": "Inhibitory activity on platelet aggregation, ADP", "value": 1.3, "unit": "%"}, {"measurement": "Inhibitory activity on platelet aggregation, AA", "value": 2.9, "unit": "%"}, {"measurement": "Inhibitory activity on platelet aggregation, Collagen", "value": 7.1, "unit": "%"}]}, {"smiles": "COC(=O)C1=C(C)NC(C)=C(C(=O)OC/C=C/c2ccc(Cn3ccnc3)cc2)C1c1cccc(Cl)c1Cl", "note": "(centres unmarked) [Example 12, (E)-3-{4-(1-imidazolylmethyl)phenyl}-2-propen-1-yl methyl 1,4-dihydro-2,6-dimethyl-4-(2,3-dichlorophenyl)pyridine-3,5-dicarboxylate]", "values": [{"measurement": "Inhibitory activity on platelet aggregation, PAF", "value": 51.8, "unit": "%"}, {"measurement": "Inhibitory activity on platelet aggregation, ADP", "value": 7.3, "unit": "%"}, {"measurement": "Inhibitory activity on platelet aggregation, AA", "value": 11.4, "unit": "%"}, {"measurement": "Inhibitory activity on platelet aggregation, Collagen", "value": 10.3, "unit": "%"}]}, {"smiles": "COC(=O)C1=C(C)NC(C)=C(C(=O)OC/C(F)=C/c2ccc(Cn3ccnc3)cc2)C1c1cccc([N+](=O)[O-])c1", "note": "(centres unmarked) [Example 13, (Z)-3-{4-(1-imidazolylmethyl)phenyl}-2-fluoro-2-propen-1-yl methyl 1,4-dihydro-2,6-dimethyl-4-(3-nitrophenyl)pyridine-3,5-dicarboxylate]", "values": [{"measurement": "Inhibitory activity on platelet aggregation, PAF", "value": 49.6, "unit": "%"}, {"measurement": "Inhibitory activity on platelet aggregation, ADP", "value": 10.9, "unit": "%"}, {"measurement": "Inhibitory activity on platelet aggregation, AA", "value": 17.4, "unit": "%"}, {"measurement": "Inhibitory activity on platelet aggregation, Collagen", "value": 6.3, "unit": "%"}]}, {"smiles": "CC1=C(C(=O)OC/C=C/c2ccccc2)C(c2cccc([N+](=O)[O-])c2)C(C(=O)OC/C=C/c2ccc(Cn3ccnc3)cc2)=C(C)N1", "note": "(centres unmarked) [Example 14, (E)-cinnamyl (E)-3-{4-(1-imidazolylmethyl)phenyl}-2-propen-1-yl 1,4-dihydro-2,6-dimethyl-4-(3-nitrophenyl)pyridine-3,5-dicarboxylate]", "values": [{"measurement": "Inhibitory activity on platelet aggregation, PAF", "value": 44.7, "unit": "%"}, {"measurement": "Inhibitory activity on platelet aggregation, ADP", "value": 4.3, "unit": "%"}, {"measurement": "Inhibitory activity on platelet aggregation, AA", "value": 42.0, "unit": "%"}, {"measurement": "Inhibitory activity on platelet aggregation, Collagen", "value": 69.6, "unit": "%"}]}, {"smiles": "COCCOC(=O)C1=C(C)NC(C)=C(C(=O)OC/C=C/c2ccc(Cn3ccnc3)cc2)C1c1cccc([N+](=O)[O-])c1", "note": "(centres unmarked) [Example 16, (E)-3-{4-(1-imidazolylmethyl)phenyl}-2-propen-1-yl 2-methoxyethyl 1,4-dihydro-2,6-dimethyl-4-(3-nitrophenyl)pyridine-3,5-dicarboxylate]", "values": [{"measurement": "Inhibitory activity on platelet aggregation, PAF", "value": 42.4, "unit": "%"}, {"measurement": "Inhibitory activity on platelet aggregation, ADP", "value": 7.1, "unit": "%"}, {"measurement": "Inhibitory activity on platelet aggregation, AA", "value": 33.7, "unit": "%"}, {"measurement": "Inhibitory activity on platelet aggregation, Collagen", "value": 24.7, "unit": "%"}]}]}
